Assay results published in the supplement of paper PMC10307832.

Key:
Assay in all cases: relative viability (nuclei count vs DMSO), 5 days (fraction); higher = more cells survive
NCI-H596 = test system: NCI-H596
Summary of the method: (§1)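 Dosing by pin tool came one day after lung cancer cell lines were seeded in 1536-well plates, using either one drug or a fixed anchor-drug dose plus five library-drug doses (not always all listed) in √10 steps. After 5 days, nuclei were counted on 4× images. Relative viability is treated-well nuclei count divided by vehicle-well nuclei count, and values are medians of duplicate plates.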

BEN = test system: BEN
Summary of the method: as §1

NCI-H2087 = test system: NCI-H2087
Summary of the method: as §1

NCI-H727 = test system: NCI-H727
Summary of the method: as §1

NCI-H3122 = test system: NCI-H3122
Summary of the method: as §1

NCI-H23 = test system: NCI-H23
Summary of the method: as §1

EMC-BAC-2 = test system: EMC-BAC-2
Summary of the method: as §1

NCI-H647 = test system: NCI-H647
Summary of the method: as §1

HARA = test system: HARA
Summary of the method: as §1

NCI-H838 = test system: NCI-H838
Summary of the method: as §1

HCC-44 = test system: HCC-44
Summary of the method: as §1

NCI-H2126 = test system: NCI-H2126
Summary of the method: as §1

LCLC-103H = test system: LCLC-103H
Summary of the method: as §1

NCI-H2023 = test system: NCI-H2023
Summary of the method: as §1

201T = test system: 201T
Summary of the method: as §1

NCI-H441 = test system: NCI-H441
Summary of the method: as §1

NCI-H650 = test system: NCI-H650
Summary of the method: as §1

LOU-NH91 = test system: LOU-NH91
Summary of the method: as §1

NCI-H1395 = test system: NCI-H1395
Summary of the method: as §1

NCI-H2347 = test system: NCI-H2347
Summary of the method: as §1

NCI-H1993 = test system: NCI-H1993
Summary of the method: as §1

For `O=c1cc(N2CCOCC2)oc2c(-c3cccc4c3sc3ccccc34)cccc12` + C[C@]1(O)C[C@@H](c2nc(-c3ccc4ccc(-c5ccccc5)nc4c3)c3c(N)nccn32)C1 [Linsitinib] (partner 1 µM), the relative viability (NCI-H596; first compound 0.01 µM) was 1.14, the relative viability (NCI-H596; first compound 0.03162 µM) was 1.02 and the relative viability (NCI-H596; first compound 0.1 µM) was 1.19. For the same molecule, the relative viability (NCI-H596; first compound 0.3162 µM) was 0.968, the relative viability (NCI-H596; first compound 1 µM) was 0.921 and the relative viability (BEN; first compound 0.01 µM) was 0.887. It also gave a relative viability (BEN; first compound 0.03162 µM) of 0.916, a relative viability (BEN; first compound 0.1 µM) of 0.978 and a relative viability (BEN; first compound 0.3162 µM) of 1.02. For the same molecule, the relative viability (BEN; first compound 1 µM) was 0.948, the relative viability (NCI-H2087; first compound 0.01 µM) was 1.04 and the relative viability (NCI-H2087; first compound 0.03162 µM) was 1.12. The relative viability (NCI-H2087; first compound 0.1 µM) was 0.899, the relative viability (NCI-H2087; first compound 0.3162 µM) was 0.899 and the relative viability (NCI-H2087; first compound 1 µM) was 0.985. For the same molecule, the relative viability (NCI-H727; first compound 0.01 µM) was 0.29, the relative viability (NCI-H727; first compound 0.03162 µM) was 0.238 and the relative viability (NCI-H727; first compound 0.1 µM) was 0.243. The relative viability (NCI-H727; first compound 0.3162 µM) was 0.227, the relative viability (NCI-H727; first compound 1 µM) was 0.283 and the relative viability (NCI-H3122; first compound 0.01 µM) was 1.01. The relative viability (NCI-H3122; first compound 0.03162 µM) was 0.977, the relative viability (NCI-H3122; first compound 0.1 µM) was 1.12 and the relative viability (NCI-H3122; first compound 0.3162 µM) was 1.03. For the same molecule, the relative viability (NCI-H3122; first compound 1 µM) was 0.944, the relative viability (NCI-H23; first compound 0.01 µM) was 0.623 and the relative viability (NCI-H23; first compound 0.03162 µM) was 0.641. It also gave a relative viability (NCI-H23; first compound 0.3162 µM) of 0.663, a relative viability (NCI-H23; first compound 1 µM) of 0.476 and a relative viability (EMC-BAC-2; first compound 0.01 µM) of 0.822. For the same molecule, the relative viability (EMC-BAC-2; first compound 0.03162 µM) was 0.867, the relative viability (EMC-BAC-2; first compound 0.1 µM) was 0.813 and the relative viability (EMC-BAC-2; first compound 0.3162 µM) was 0.773. The relative viability (EMC-BAC-2; first compound 1 µM) was 0.806, the relative viability (NCI-H647; first compound 0.01 µM) was 1.02 and the relative viability (NCI-H647; first compound 0.03162 µM) was 1.24. For the same molecule, the relative viability (NCI-H647; first compound 0.1 µM) was 1.22, the relative viability (NCI-H647; first compound 0.3162 µM) was 1.09 and the relative viability (NCI-H647; first compound 1 µM) was 0.954. For the same molecule, the relative viability (HARA; first compound 0.01 µM) was 0.996, the relative viability (HARA; first compound 0.03162 µM) was 0.933 and the relative viability (HARA; first compound 0.1 µM) was 1.03. For the same molecule, the relative viability (HARA; first compound 0.3162 µM) was 1.17, the relative viability (HARA; first compound 1 µM) was 0.926 and the relative viability (NCI-H838; first compound 0.01 µM) was 1.05. For the same molecule, the relative viability (NCI-H838; first compound 0.03162 µM) was 1.03, the relative viability (NCI-H838; first compound 0.1 µM) was 0.951 and the relative viability (NCI-H838; first compound 0.3162 µM) was 0.931. The relative viability (NCI-H838; first compound 1 µM) was 0.916, the relative viability (HCC-44; first compound 0.01 µM) was 0.748 and the relative viability (HCC-44; first compound 0.03162 µM) was 0.661. The relative viability (HCC-44; first compound 0.1 µM) was 0.655, the relative viability (HCC-44; first compound 0.3162 µM) was 0.684 and the relative viability (HCC-44; first compound 1 µM) was 0.584. For the same molecule, the relative viability (NCI-H2126; first compound 0.01 µM) was 0.698, the relative viability (NCI-H2126; first compound 0.03162 µM) was 0.664 and the relative viability (NCI-H2126; first compound 0.1 µM) was 0.691. For the same molecule, the relative viability (NCI-H2126; first compound 0.3162 µM) was 0.702, the relative viability (NCI-H2126; first compound 1 µM) was 0.725 and the relative viability (LCLC-103H; first compound 0.01 µM) was 1.09. For the same molecule, the relative viability (LCLC-103H; first compound 0.03162 µM) was 1.04, the relative viability (LCLC-103H; first compound 0.1 µM) was 1.03 and the relative viability (LCLC-103H; first compound 0.3162 µM) was 1.08. The relative viability (LCLC-103H; first compound 1 µM) was 0.978, the relative viability (NCI-H2023; first compound 0.01 µM) was 0.735 and the relative viability (NCI-H2023; first compound 0.03162 µM) was 0.66. It also gave a relative viability (NCI-H2023; first compound 0.1 µM) of 0.603, a relative viability (NCI-H2023; first compound 0.3162 µM) of 0.564 and a relative viability (NCI-H2023; first compound 1 µM) of 0.557. For the same molecule, the relative viability (201T; first compound 0.01 µM) was 1.04, the relative viability (201T; first compound 0.03162 µM) was 1.03 and the relative viability (201T; first compound 0.1 µM) was 1.03. It also gave a relative viability (201T; first compound 0.3162 µM) of 1.01, a relative viability (201T; first compound 1 µM) of 1.05 and a relative viability (NCI-H441; first compound 0.01 µM) of 0.53. The relative viability (NCI-H441; first compound 0.03162 µM) was 0.518, the relative viability (NCI-H441; first compound 0.1 µM) was 0.582 and the relative viability (NCI-H441; first compound 0.3162 µM) was 0.555. It also gave a relative viability (NCI-H441; first compound 1 µM) of 0.594, a relative viability (NCI-H650; first compound 0.01 µM) of 0.794 and a relative viability (NCI-H650; first compound 0.03162 µM) of 1.03. For the same molecule, the relative viability (NCI-H650; first compound 0.3162 µM) was 1.14, the relative viability (NCI-H650; first compound 1 µM) was 0.679 and the relative viability (LOU-NH91; first compound 0.01 µM) was 0.857. The relative viability (LOU-NH91; first compound 0.03162 µM) was 0.937, the relative viability (LOU-NH91; first compound 0.1 µM) was 0.938 and the relative viability (LOU-NH91; first compound 0.3162 µM) was 1.03. The relative viability (LOU-NH91; first compound 1 µM) was 0.936, the relative viability (NCI-H1395; first compound 0.01 µM) was 1.21 and the relative viability (NCI-H1395; first compound 0.03162 µM) was 1.11. It also gave a relative viability (NCI-H1395; first compound 0.1 µM) of 1.03, a relative viability (NCI-H1395; first compound 0.3162 µM) of 1.12 and a relative viability (NCI-H1395; first compound 1 µM) of 1.2. The relative viability (NCI-H2347; first compound 0.01 µM) was 1.02, the relative viability (NCI-H2347; first compound 0.03162 µM) was 0.943 and the relative viability (NCI-H2347; first compound 0.1 µM) was 0.962. The relative viability (NCI-H2347; first compound 0.3162 µM) was 0.926, the relative viability (NCI-H2347; first compound 1 µM) was 0.945 and the relative viability (NCI-H1993; first compound 0.01 µM) was 0.73. It also gave a relative viability (NCI-H1993; first compound 0.03162 µM) of 0.785, a relative viability (NCI-H1993; first compound 0.1 µM) of 0.687 and a relative viability (NCI-H1993; first compound 0.3162 µM) of 0.79. It also gave a relative viability (NCI-H1993; first compound 1 µM) of 0.531.
